# Legend:
# [1] = assay type: in vivo
# Excerpt: Since July 2005 369 cases of MBC were identified from the Swedish Cancer Register and each case was matched to five controls (n=[…]) from the general population of the same age and domicile. Medicines with documented side effects of hormonal imbalance or gynecomastia were collected from the Prescribed Drug Register in operation since July 2005. Drug exposure was followed both for cases and controls until the cancer diagnosis or death of the case. Cases and controls with a diagnosis of prostate cancer were excluded. The data were mainly analyzed with conditional logistic regression and Cox regression.
# Cox regression and nested case-control analysis were used in analysis of the ever-use variable of any of the included medicines, after the exclusion phases (described below), as well as after the grouping phase and generated study design-specific hazard ratios (HR) and 95% confidence intervals (CI). P-values less than 0.05 were considered statistically significant. All processing of the data and statistical analysis was made using R programming for statistical computing and ended with the effectuation of conditional logistic regression, Cox regression and nested case-control. Using multiple statistical methods provided additional statistical certainty.
# In this second line of statistical analysis, the match sets created by Statistics Sweden were kept, using the ID number of the case to connect the five matched controls to each case. All medical use after the time of diagnosis of the case was excluded, which applied also to the controls, meaning that the matched control's medical usage after the date of diagnosis of the case was censored using the predefined match sets. All subjects were classified as non-users until the date of the first prescription of one of the included medicines. […]
# The first prescribed medicine for each individual with recorded medical use was selected, since this was likely to be the medicine each individual had used for the longest period of time. […]
# [2] = except in skeletal muscle tissue; cited from earlier work
# [3] = cited from earlier work
# [4] = prevention mainly limited to less severe prostate cancer; cited from earlier work
structure (smiles),measurement,setting,value
COc1cc2nc(N(C)CCCNC(=O)C3CCCO3)nc(N)c2cc1OC (stereo not shown) [Alfuzosin],Association of medication use with risk of MBC (in words),[1],significant correlation to increased risk of MBC
"C[C@]12CCC(=O)C[C@@H]1CC[C@@H]1[C@@H]2CC[C@]2(C)[C@@H](O)CC[C@@H]12 [DHT, dihydrotestosterone]",Potency relative to testosterone or other androgens,[2],3-5 times
COc1cc2nc(N3CCN(C(=O)C4CCCO4)CC3)nc(N)c2cc1OC (stereo not shown) [Terazosin],Association of medication use with risk of MBC (in words),[1],significant correlation to increased risk of MBC
"C[C@]12C=CC(=O)N[C@@H]1CC[C@@H]1[C@@H]2CC[C@]2(C)[C@@H](C(=O)Nc3cc(C(F)(F)F)ccc3C(F)(F)F)CC[C@@H]12 [dutasteride, (5α,17β)-N-{2,5-Bis(trifluoromethyl)phenyl}-3-oxo-4-azaandrost-1-ene-17-carboxamide]",Adverse effects in clinical studies,"[3]; 5 mg daily for 6 months, patients, compared with therapeutic dose 0.5 mg",no additional adverse effects
same,Safety of single daily doses,"[3]; up to 40 mg/day (80 times the therapeutic dose) for 7 days, healthy volunteers",without significant safety concerns
same,Preventive effect on MBC (in words),"[1]; register study, 5-ARI users",preventive effect was strongest
same,Effect on prostate cancer (in words),[4],a better prognosis has been shown

# Reference: patent publication US20190282590A1, “MEDICAMENT FOR TREATMENT AND/OR PROPHYLACTIC TREATMENT OF BREAST CANCER” (HAKMED AB, priority 2016, published 2019)
